In article PMC11628397 (Nature Synthesis, 2024):
In brackets after ≈: the same amount, converted by molar mass.

How the values were obtained:
[1] = metabolic stability in human liver microsomes
[2] = kinetic solubility in phosphate-buffered saline, pH 7.4; format: physicochemical; details: pH 7.4, aqueous buffer, kinetic from dmso stock
[3] = tested on: MCF-7 cells; details: cited from earlier work
[4] = tested on: human cancer cell line MCF-7; test: resazurin reduction assay, growth inhibition of MCF-7; format: cell-based; details: MCF7, read-out: IC50, inhibition of the growth of MCF-7
[5] = tested on: human cancer cell line MCF-7; details: MCF-7 human cancer cell line; cited from earlier work

CLint, metabolic stability (as printed in text) [1] | solubility kinetic [2] | IC50 [4] | Structure (SMILES) | cell differentiation, intracellular lipid droplets (in words) [3] | effect on cell growth (in words) [5]
83 mg/min/µL | 385 µM (≈ 63.6 µg/mL) | – | CCOC(=O)c1ccc(N)cc1 [Benzocaine] | – | –
– | ≤ 1 µM | 31.3 ± 7.8 µM | CC(C)(C)c1ccc(CN2CCN(C(c3ccccc3)c3ccc(Cl)cc3)CC2)cc1 (stereo not drawn) [Buclizine] | induced cell differentiation | cytostatic effect
